Key:
[1] = system: NDRG4 or OSMR plasmid material; assay: Real-time MSP assay designs on plasmid material; set-up: key to Ct / Duplicate Ct / Average Ct: cycle number at which amplification curve crosses threshold; details: for PCR efficiency: from standard curve on plasmid material
Protocol: Plasmid material corresponding to a promoter region of NDRG4 and OSMR gene was used to test additional assay designs. The plasmid for the standard curve was generated as follows: the promoter sequence as defined by the primers is PCR amplified and cloned (using suitable isolated and bisulphite modified cell line DNA). The sequence is verified by sequencing and compared to the published promoter sequence. A serial dilution of either NDRG4 or OSMR plasmid material (2×10^6 to 2×10^1 copies/5 μl) was loaded in duplicate. 5 μl of plasmid dilution or buffer (non template control) was added to a 20 μl PCR mix containing the specified primer and beacon detector sequences as previously described. Results were generated using the SDS 2.2 software from Applied Biosystems with automatic baseline and threshold settings. Data were exported as Ct values (cycle number at which the amplification curves cross the threshold value, set automatically by the software).

[2] = system: methylated gene promoters in FFPE tissue DNA; assay: Real-time MSP on colon tissue samples; set-up: species or system human; details: for Specificity (%) / Sensitivity (%): 50 cases (adenoma + carcinoma) vs 39 controls, tissue
Protocol: Real-time MSP was applied on a 7900HT fast real-time PCR system (Applied Biosystems). 2.4 μl of the modified DNA (equivalent to 2.5 μg unconverted DNA) was added to a PCR mix (total volume 12 μl) containing buffer (16.6 mM (NH4)2SO4, 67 mM Tris (pH 8.8), 6.7 mM MgCl2, 10 mM β-mercaptoethanol), dNTPs (5 mM), forward primer (6 ng), reverse primer (18 ng), molecular beacon (0.16 μM), BSA (0.1 μg), and Jumpstart DNA Taq polymerase (0.4 units; Sigma Aldrich). Cycle program used was as follows: 5 minutes 95° C., followed by 45 cycles of 30 seconds 95° C., 30 seconds 57° C. (51° C. for APC), and 30 seconds 72° C., followed by 5 minutes 72° C. A standard curve (2×106—20 copies) was included to determine copy numbers of unknown samples by interpolation of their Ct values to the standard curve.
Marker selection in colon tissue: Based on re-expression, 224 different gene assays representing 145 gene promotors were tested on the Base5 methylation profiling platform (data not shown, see reference 1 for details). The 37 most differentially methylated gene sequences assessing 29 gene promoters were validated on retrospectively collected tumors from 65 colorectal cancer patients (all stages) and 74 distant resection ends (histopathologically normal) using real-time MSP. Several markers reliably detected CRC in those tissue samples (data not shown). The results were confirmed on an independent test set containing 39 tissue controls (non-cancerous), 34 carcinomas and 16 adenomas. Several combinations of the tested markers reliably detected CRC with high specificity and sensitivity.
The ten best performing markers GATA5, GATA4, SFRP1, SFRP2, APC, MGMT, NDRG4, OSMR, JPH3 and ADAM23 were validated with primer sets and beacon probes as specified in Table 24. In addition to the colon test genes, the independent reference gene β-Actin (ACT) was also measured. The ratios between the colon test genes and ACT were calculated, and are the test result of the assay.
Marker candidates identified by re-expression were screened using 37 real-time methylation specific PCR (real-time MSP) assays. These assays were used to assess the methylation status of 29 gene promoters in 293 formalin-fixed paraffin-embedded (FFPE) tissue samples collected from various clinics. Samples included 99 carcinomas of various stages, 16 adenomas, 63 samples from patients with cancer other than CRC (20 breast [stages I-III], 22 bladder [stages I-III], 21 lung [stages I and II]), 39 samples from patients with no evidence of cancer and 76 distant resection ends (histopathologically normal) from CRC patients. These samples were divided into training and independent test sets, and used to select the gene methylation assays best able to discriminate between cancerous and non-cancerous samples. The training set included retrospectively collected tumors from 65 colorectal cancer patients (all stages) and 74 distant resection ends. Using the 10 best performing genes the results were confirmed on an independent test set containing 59 samples from patients with cancer other than CRC, 39 non-cancerous controls and 50 cancer cases (34 carcinomas and 16 adenomas).
The individual performance of the 10 best performing tissue markers OSMR, SFRP1, GATA4, SFRP2, NDRG4, ADAM23, GATA5, MGMT, APC and JPH3 is shown in FIG. 7, when the analytical cut-off was set to give 100% specificity, except for JPH3 where a specificity of 95% was obtained (based on the 39 non-cancerous controls). In addition to the colon test genes, the independent reference gene β-Actin (ACT) was also measured. The ratios between the colon test genes and ACT were calculated, and are the test result of the assay.

[3] = system: methylated gene promoters in fecal DNA; assay: Real-time MSP on stool (fecal) DNA; set-up: species or system human; details: fecal samples; for Sens adenoma: 13 samples; for Sens CRC: 15 samples; for Spec: 19 samples
Description: A standardized multicenter screening trial (The Netherlands) was initiated in 2006. In this trial, non symptomatic subjects aged 50 or above are screened with colonoscopy, FOBT and real-time MSP using DNA from stool and blood. In addition, prospectively collected stool samples from multiple centers (Germany and The Netherlands) were used. In these trials, symptomatic patients, attending a Gastroenterology clinic and ultimately diagnosed with CRC, provided a stool sample for use in real-time MSP. From the ongoing trials 147 stool samples were available for the present study. 3 main categories of stool samples were used: 67 samples with no suspicious findings, 58 adenomas and 22 samples from patients covering all stages of CRC, with 90% representing early stage disease.
After defecation in a special bucket, patients added 250 ml of stool homogenization buffer (Amresco, Solon, Ohio, USA) to the sample. Samples were shipped to the laboratory and further processed within 72 hours after defecation. Stool homogenization buffer was added to a ratio 1:7, and the samples were homogenized and aliquoted in portions of 32 ml.
Single aliquots (32 ml containing the equivalent of 4 g of stool) were centrifuged for 5 minutes at 2540 rcf at 20° C. The supernatant was retained and centrifuged a second time (10 minutes at 16500 rcf at 4° C.). 22 ml of the supernatant obtained following the second centrifugation step was incubated with 5 μl Rnase A for 60 minutes at 37° C. Total DNA was then SodiumAcetate (pH 5.2)-isopropanol precipitated and washed with 70% ethanol. The DNA was resuspended in 4 ml 1×TE (pH 7.4). 400 μl 10× buffer (240 mM EDTA (pH=8.0), 750 mM NaC), 400 μl 10% SDS, and 20 μl Proteinase K (20 mg/ml) was added and the samples were incubated at 48° C. overnight at constant shaking (225 RPM). After centrifugation (3000 RCF for 30 seconds at room temperature), 5 ml of Phenol:Chloroform:Isoamylalcohol (25:24:1, v/v:Invitrogen) was added and incubated for 10 minutes at room temperature shaking at 225 RPM and centrifuged for 5 minutes at 3000 RCF. The aqueous layer was transferred to a new tube containing 5 ml of Phenol:Chloroform:Isoamylalcohol. Again, the samples were incubated for 10 minutes at room temperature shaking at 225 RPM and centrifuged for 5 minutes at 3000 RCF at room temperature. The aqueous layer was transferred to a new tube and DNA was precipitated by adding 500 μl 7.5 M Ammonium Acetate, 5 μl glycogen and 10 ml of cold 100% Ethanol (−20° C.), further incubated at −20° C. for at least 1 hour and centrifuged at 15000 RCF for 30 minutes at 4° C. Pellets were washed with 3.5 ml freshly prepared 70% Ethanol and air dried. Pellets were finally resuspended in 2 ml of LoTE pH 8.0 and stored at −80° C., until further processing.
An upscaled DNA modification step was applied to 32 μg of the obtained DNA. 16 Aliquots of 2 μg of DNA were subjected to bisulfite modification in 96-wells format on a pipetting robot (Tecan), using the EZ-96DNA Methylation kit (Zymo Research), according to the manufacturer's protocol. Basically, aliquots of 45 μl were mixed with 5 μl of M-Dilution Buffer and incubated at 37° C. for 15 minutes shaking at 1100 rpm. Then 100 μl of the diluted CT Conversion Reagent was added and samples were incubated at 70° C. for 3 hours, shaking at 1100 rpm in the dark. After conversion, the samples were desalted by incubation on ice for 10 minutes and addition of 400 μl of M-Binding buffer. The samples were loaded on a Zymo-Spin I Column in a collection tube and after centrifugation washed with 200 μl of M-Wash Buffer. 200 μl of M-Desulphonation Buffer was put onto the column and incubated at room temperature for 15 minutes. After centrifugation of the columns, they were washed twice with 200 μl of M-Wash Buffer. Finally, the DNA was washed from the column in 50 μl Tris-HCl 1 mM pH8.0 and stored at −80° C., until further processing.

[4] = plasmid standard, quantity 20 copies
[5] = plasmid standard, quantity 200 copies
[6] = plasmid standard, quantity 2000 copies
[7] = plasmid standard, quantity 20000 copies
[8] = plasmid standard, quantity 200000 copies
[9] = plasmid standard, quantity 2000000 copies
[10] = 16 adenoma tissue samples vs 39 controls
[11] = 34 carcinoma tissue samples vs 39 controls

Substance	PCR efficiency [1] [%]	Average Ct [1, 4]	Ct [1, 4]	Duplicate Ct [1, 4]	Average Ct [1, 5]	Ct [1, 5]	Duplicate Ct [1, 5]	Average Ct [1, 6]	Ct [1, 6]	Duplicate Ct [1, 6]	Average Ct [1, 7]	Ct [1, 7]	Duplicate Ct [1, 7]	Average Ct [1, 8]	Sensitivity [2, 10] [%]	Specificity [2, 10] [%]	Sensitivity [2, 11] [%]	Specificity [2, 11] [%]	Specificity (%) [2] [%]	Sensitivity (%) ([2]; first cut off ratio)	also measured
OSMR_4 (DNA TTTGGTCGGGGTAGGAGTAGC; listed as DNA, chemistry not given here)	100.8	34.37	34.63	34.12	31.28	31.37	31.18	28.08	28.24	27.91	24.72	24.79	24.64	21.31	–	–	–	–	–	–	Ct [1, 8]: 21.56; Duplicate Ct [1, 8]: 21.05; Average Ct [1, 9]: 18.07; Ct [1, 9]: 18.24; Duplicate Ct [1, 9]: 17.90
MGMT (DNA TTTCGACGTTCGTAGGTTTTCGC; listed as DNA, chemistry not given here)	–	–	–	–	–	–	–	–	–	–	–	–	–	–	63	100	35	100	100	44	–
OSMR (3) (DNA TTTGGTCGGGGTAGGAGTAGC; listed as DNA, chemistry not given here)	–	–	–	–	–	–	–	–	–	–	–	–	–	–	88	100	88	100	100	88	Sens adenoma [3]: 8%; Sens CRC [3]: 67%; Spec [3]: 100%
GATA4 (DNA AGGTTAGTTAGCGTTTTAGGGTC; listed as DNA, chemistry not given here)	–	–	–	–	–	–	–	–	–	–	–	–	–	–	88	100	74	100	100	78	Sens adenoma [3]: 15%; Sens CRC [3]: 73%; Spec [3]: 100%; Sensitivity (%) ([2]; second cut off ratio, between ( )): (82) %
OSMR_3 (DNA TTTGGTCGGGGTAGGAGTAGC; listed as DNA, chemistry not given here)	97.2	33.98	34.18	33.77	30.59	30.51	30.67	27.19	27.22	27.16	23.90	23.97	23.83	20.35	–	–	–	–	–	–	Ct ([1]; NTC (non template control), quantity 0): 38.13; Ct [1, 8]: 20.41; Duplicate Ct [1, 8]: 20.29; Average Ct [1, 9]: 17.04; Ct [1, 9]: 16.93; Duplicate Ct [1, 9]: 17.16
